# From patent US11241480B2, “Methods for modulation of dietary and microbial exposure with compositions comprising an EGFR ligand” (Washington University, priority 2017, dated 2022)
# “Also recorded” adds a separate entry of the source.
# Experiments:
# C57BL/6 mice [1] = assay: Oral tolerance and delayed type hypersensitivity (DTH) response to Ova; assay type: in vivo
# Description: Antibiotic treatment: Mice were given a combination of antibiotics (Abx) ampicillin (1 g/L), metronidazole (1 g/L), neomycin (1 g/L), and vancomycin (500 mg/L) in drinking water for the time periods outlined in the figure legends.
# EGFRi treatment: Mice were injected with 500 μg/kg tyrphostin AG1478 (an inhibitor of EGFR phosphorylation) in the neonatal, post-neonatal, or weaned phase on DOLs noted in the text or figure legends.
# Oral tolerance and Delayed Type Hypersensitivity Responses: Mice, and/or nursing dams, when treated prior to weaning, were given Ova 20 g/L in drinking water, or drinking water alone for the intervals defined in the figure legend. Four weeks and six weeks following dietary Ova exposure mice were immunized subcutaneously with 100 μg Ova in incomplete Freund's Adjuvant (Sigma Aldrich). Two weeks after the last immunization mice were challenged with 20 μg Ova in the footpad, body temperature monitored for one hour, and the increase in footpad thickness evaluated using measurements taken with micrometer calipers taken before and 24 hours after challenge. To directly evaluate colonic antigen delivery and blockade of GAPs in the development of tolerance, enemas containing Ova 10 μg/gm body weight with or without 10 μg EGF were administered intrarectally every other day five times from DOL 14 to 22 (post-neonatal phase) or DOL 56 to 64 (adult). Mice were rested three weeks, and then systemically immunized and challenged in the footpad as above.
# [2] = Serum cytokines and immunoglobulins by ELISA/multiplex after Ova rechallenge; assay type: in vivo, mice; conditions: dietary Ova DOL 0-30; EGFRi DOL 6 and 8 or DOL 24 and 26
# Description: Measurement of cytokines, EGF, and immunoglobulins: Cytokines were measured using the MILLIPLEX MAP Mouse Cytokine/Chemokine Magnetic Bead Panel (see e.g., FIG. 16D; EMD Millipore) or using ELISAs for EGF (R&D systems), IL13 (eBioscience), Eotaxin (R&D systems), IgE (eBiosciences), and MCPT1 (eBioscience) per the manufacturers recommendations. An ELISA comprised of Ova (Sigma-Aldrich A5503) for capture, and monoclonal anti-IgE antibody conjugated to alkaline phosphatase (Southern Biotech 1110-04) for detection, was used to measure Ova specific IgE.
# CBir1 T cells = assay: Adoptive transfer of CBir1/DP1 TCR transgenic T cells; assay type: in vivo, mice
# Description: (§1) Isolation of cellular populations and flow cytometry: Small intestines or colons were harvested, rinsed with PBS, and Peyer's patches or colonic patches were removed. Epithelial cellular populations were released by incubating for 15 min three times in a 37° C. rotating incubator in HBSS media (BioWhittaker, Walkersville, Md.) containing 5 mM EDTA as previously described. Isolation of splenic, MLN and lamina propria (LP) cellular populations was performed as previously described. In some experiments, single cell suspensions of MLN were cultured in cell culture media for three days as previously described. The first wash of HBSS+EDTA was used to isolate goblet cells as below. SI and colonic LP-MNPs were identified as 7AAD^−, CD45^+, CD11c^+, MHCII^+for flow cytometric sorting. Goblet cells were identified as CD45^−, CD24^−CK18^+, UEA-I^+for flow cytometric sorting as previously described. For intracellular antigens and cytokines, cells were fixed and permeabilized overnight and stained per the manufacturers recommendations (eBioscience). Flow cytometry was performed with a FACScan cytometer (BD Biosciences, San Jose, Calif.) retrofitted with additional lasers. Data acquisition was performed using CellQuest (BD Biosciences) and Rainbow (Cytek,Fremont, Calif.) or FlowJo software (Tree Star, Ashland, OR). Data analysis was performed on a Macintosh computer running FlowJo software.
# (§2) Treatments to alter GAPs: Acute induction or inhibition of GAPs was performed as previously described. Mice were given 500 μg/kg tyrphostin AG1478 i.p. to inhibit of EGFR activation, 10 mg/kg U0126 i.p. to inhibit MAPK/ERK (MEK1/MEK2) activation, 150 μg/kg carbamylcholine (acetycholine analogue) i.p., 100 mg/kg tropicamide (mAChR4 selective antagonist) i.p., 1 μg recombinant murine EGF (Shenandoah) in 20 μl PBS intracolonic, 10 μg LPS intraluminally, or 100 μl stomach contents from a DOL10 mice intraluminally, or 100 μl heat killed cecal contents from SPF housed adult mice intraluminally. Reagents from Sigma Aldrich, St. Louis, Mo. unless otherwise noted.
# (§3) Adoptive T cell Transfer: 10^5 splenic CD4^+ T cells from CD45.1 CBir1 TCR transgenic mice, CD45.1+ DP1 TCR transgenic mice, or CD45.1+ OTII TCR transgenic mouse were enriched by magnetic particles (Stemcell Technology, #19752 Vancouver, British Columbia, Canada) and injected i.v. into mice. In some experiments cells were labeled with CFSE prior to injection, and MLNs of recipient mice were analyzed three days posts transfer. Mice were analyzed seven days posts transfer to evaluate the presence of the transferred population in the LP. In some experiments, in FIG. 34, FIG. 37, and FIG. 39, cells were transferred on DOL 16, and analyzed on DOL 30 or after 8 days of DSS treatment on DOL 38.
# C57BL/6 mice [3] = assay: DSS colitis after early-life manipulation of GAPs; assay type: in vivo; conditions: 3% DSS DOL30-38
# Description: as §2, §3
# DSS colitis: Mice were given DSS (36,000-50,000 MW, Reagent grade, MP Biomedicals) in drinking water ad libitum for eight days. Math1^fl/fl ERT2^ViCre mice and litter mates were given 1.5% DSS due to their increased susceptibility to disease. Weight was measured daily. On the final day, colons were measured for length to assess shortening, and were fixed in buffered formalin and embedded in paraffin for sectioning. H/E sections were scored for disease as before. In some experiments, colon LP was isolated on the final day of DSS treatment to analyze endogenous T cell and transferred CBir1 T cell populations.
# colon draining MLN = assay: MLN culture cytokines and colon H/E histology on DOL35; assay type: in vivo; conditions: DOL35 mice; for colon pathology (H/E sections): EGFRi DOL14 and 16 or DOL24 and 26, intracolonic EGF DOL10-21
# Description: as §1
# Measurement of cytokines, EGF, and immunoglobulins: Cytokines and EGF were measured using the using ELISAs for EGF (R&D systems), phosphorylated MAPK, phosphorylated EGFR, IL17 (eBioscience), IFNγ and IL-10, (R&D systems) per the manufacturers recommendations. Luminal EGF was measured in stomach, SI, and colonic contents; to isolate contents the stomach was opened and contents was added to 1 ml PBS. […] Phosphorylated MAPK, and phosphorylated EGFR was measured on epithelial cells from the SI or colon isolated by one 15 minute wash with HBSS+EDTA as described above. Cytokines were measured on supernatants from cultured MLNs.
# [4] = dietary Ova DOL 0-30, EGFRi DOL 6 and 8 or DOL 24 and 26
# [5] = EGFR inhibitors on DOL24 and 26 post-weaning
# [6] = EGF on DOL10-21 or EGFR inhibition on DOL 24 and 26
# [7] = EGFR inhibitors on DOL14 and 16 (post-neonatal phase)
# [8] = intracolonic EGF DOL10-21, transfer DOL16
compound,measurement,setting,value
"COc1cc2ncnc(Nc3cccc(Cl)c3)c2cc1OC [EGFRi, tyrphostin AG1478]",lethargy/hypothermia upon rechallenge with sterile Ova in the footpad,C57BL/6 mice [1]; [4],lethargic and hypothermic
same,oral tolerance (footpad swelling upon Ova rechallenge),C57BL/6 mice [1]; [4],significantly abrogated
same,lethargy/hypothermia upon rechallenge with sterile Ova in the footpad,"C57BL/6 mice [1]; dietary Ova DOL 0-30, EGFRi DOL 6 and 8 or DOL 24 and 26, listed as inhibitor of EGFR activation",developed hypothermia
same,"other immunoglobulins, Th1 and Th17 cytokines in serum",[2],did not have elevations in other immunoglobulins or prototypic Th1 or Th17 cytokines
same,serum Th2 mediators and IgE,[2],"markedly elevated serum levels of Th2 mediators, and global and antigen-specific IgE"
same,Foxp3 expression of transferred CBir1 T cells on DOL30,CBir1 T cells; [5],significantly less Foxp3
same,inflammatory cytokine expression of CBir1 T cells on DOL30,CBir1 T cells; [5],significantly greater proportion of the population expressed inflammatory cytokines
same,Foxp3 expression of CBir1 and DP1 T cells in colon LP seven days post transfer,"CBir1 T cells; antigen encounter post-weaning, DOL28, under EGFR inhibition",little Foxp3 expression
same,Foxp3 and inflammatory cytokine expression of transferred CBir1 T cells on DOL30,"CBir1 T cells; inhibition of EGFR on DOL14 and 16 (post-neonatal phase), vs controls",no significant difference in the expression of Foxp3+ or inflammatory cytokines
same,expansion of transferred CBir1 T cells in colon LP on DOL30,CBir1 T cells; inhibition of EGFR on DOL14 and 16 or on DOL24 and 26,did not affect the expansion of transferred CBir1 T cells
same,expansion and activation of transferred CBir1 or DP1 cells in the MLN,"CBir1 T cells; post-weaning mice (DOL28), three days after transfer",allowed adoptively transferred CBir1 or DP1 cells to expand and become activated
same,Foxp3 expression of transferred CBir1 T cells after DSS,C57BL/6 mice [3]; [6],significantly reduced Foxp3 expression
same,"disease severity in DSS colitis (histology, colon length)",C57BL/6 mice [3]; [6],developed significantly worse disease
same,expansion of CBir1 T cells in colon LP after DSS,C57BL/6 mice [3]; [6],significant expansion of CBir1 T cells in colon LP
same,inflammatory cytokines of transferred CBir1 T cells after DSS,C57BL/6 mice [3]; [6],significantly increased inflammatory cytokines
same,weight loss in DSS colitis,C57BL/6 mice [3]; [6],lost significantly more weight
same,Foxp3 and inflammatory cytokine expression of CBir1 T cells after DSS,C57BL/6 mice [3]; [7],continued expressing Foxp3 but not inflammatory cytokines
same,expansion of CBir1 T cells in colon LP after DSS,C57BL/6 mice [3]; [7],did not expand further in the colon LP
same,inflammatory cytokine production in the colon draining MLN,colon draining MLN; EGFRi post-weaning (DOL24 and 26),results in inflammatory cytokine production in the colon draining MLN
same,colon pathology (H/E sections),colon draining MLN,does not induce overt pathologic changes
"EGF: recombinant murine EGF (Shenandoah); EGFR ligand, given luminally or intracolonically","tolerance to luminal Ova (DTH, footpad thickness)",C57BL/6 mice [1]; Ova enemas with EGF every other day DOL 14-22 (post-neonatal phase colon),abrogated tolerance to luminal Ova; also recorded: attenuates tolerance to a luminal antigen
same,Foxp3 expression of transferred CBir1 T cells on DOL30,CBir1 T cells; [8],significantly less Foxp3
same,expansion of transferred CBir1 T cells in colon LP on DOL30,CBir1 T cells; [8],significantly less expansion
same,"inflammatory cytokine expression (IL-17, TNFα, IFNγ) of CBir1 T cells on DOL30","CBir1 T cells; intracolonic EGF DOL10-21, vs PBS treated control mice",significantly larger proportion of the remaining CBir1 T cell population expressed inflammatory cytokines
same,expansion of CBir1 cells in the colon draining MLN three days post transfer,"CBir1 T cells; post-neonatal mice, intracolonic recombinant EGF (1 μg daily DOL10-21)",failed to expand
same,Foxp3 expression of transferred CBir1 T cells after DSS,C57BL/6 mice [3]; [6],significantly reduced Foxp3 expression
same,"disease severity in DSS colitis (histology, colon length)",C57BL/6 mice [3]; [6],developed significantly worse disease
same,expansion of CBir1 T cells in colon LP after DSS,C57BL/6 mice [3]; [6],significant expansion of CBir1 T cells in colon LP
same,inflammatory cytokines of transferred CBir1 T cells after DSS,C57BL/6 mice [3]; [6],significantly increased inflammatory cytokines
same,weight loss in DSS colitis,C57BL/6 mice [3]; [6],lost significantly more weight
same,colon pathology (H/E sections),colon draining MLN,no overt pathology
